{
  "source": "patent US12059473B2",
  "about": "“Humanized anti-prostate -specific membrane antigen (PSMA) antibody drug conjugates” (Ambrx, Inc., priority 2018, dated 2024)",
  "key": {"[1]": {"tested_on": "C4-2 human carcinoma xenografts; patient derived xenograft (PDX) TM00298 prostate tumors", "test": "Repeat dose and enzalutamide combination efficacy in prostate tumor models", "type": "in vivo, mice", "conditions": "enzalutamide as a single agent; prostate cancer cells", "protocol": "Anti-tumor efficacy of the anti-PSMA ADCs of the invention in combination with hormone therapy enzalutamide was tested in tumor xenograft model in mice engrafted with prostate cancer cell line. Metastatic castration resistant prostate cancer (mCRPC) relevant cell line, C4-2, was obtained from ATCC and expanded in vitro following ATCC instructions. C4-2 human carcinoma xenografts were grown in male immune-compromised mice with cells implanted subcutaneously. A second model using male immunocompromised mice bearing patient derived xenograft (PDX) TM00298 (Jackson Laboratories, CA) prostate tumors was also studied.\nMice were weighed and measured for tumor volume using an electronic caliper. Individual tumor volume was calculated as length×width×width/2. Mice with vascularized tumors (determined by appearance) averaging a volume of 500 mm^3 were randomized into treatment groups and were dosed intravenously per individual body weight. Anti-PSMA ADCs were administered intravenously at 0.5, 1, and 3 mg/kg weekly for 4 weeks in the C4-2 model and at 1 and 3 mg/kg weekly for 4 weeks in the PDX model. In both prostate models, enzalutamide was administered orally daily at 10 mg/kg, for 28 days. In both prostate models, one group of mice were administered a combination therapy of 1 mg/kg anti-PSMA ADC plus 10 mg/kg enzalutamide, FIGS. 7 and 8. […]"}, "[2]": {"tested_on": "cell surface PSMA expression", "conditions": "in vitro; Murga et al. 2015; cited from earlier work"}},
  "data": [
    {"smiles": "CNC(=O)c1ccc(N2C(=S)N(c3ccc(C#N)c(C(F)(F)F)c3)C(=O)C2(C)C)cc1F", "note": "[enzalutamide]", "values": [
      {"measurement": "level of cell surface PSMA", "setting": "[1]", "value": "increased the level of cell surface PSMA in prostate cancer cells"},
      {"measurement": "increase of cell surface PSMA expression", "setting": "[2]", "value": "approximately 3 fold"}
    ]}
  ]
}
